Here are results for 28 substances from patent US20260234188A1, “CHEMOKINE-BINDING PEPTIDES” (Oxford University Innovation Limited, priority 2022, published 2026).

“Also recorded” adds a separate entry of the source.

The first assay has as its system panel of up to 42 human chemokines. The experiment in a line: Phage-display next generation sequencing screen of overlapping hexadecapeptide libraries, chemokines displayed on streptavidin beads. In kind it is binding. The note with it: log2E greater than 5, chemokines named by first part of UniProt Entry Name. An excerpt: FIG. 1. Exemplar results from phage display screens. Phage-display libraries were constructed and analysed as described in (McLaughlin, 2013) (Tonikian, 2007). […] FIG. 1A, CC chemokines against evasin A library. FIG. 1B, CXC chemokines against the evasin B library. FIG. 1C, CXC and CX3C chemokines against the viral chemokine binding protein library. FIG. 1D, CXC chemokines against the chemokine library. […] Identified hexadecapeptides were mapped to the position in the originating protein (x-axis) and to fold enrichment (log 2 E, left y-axis). Regions of interest (ROI) were defined where the cumulative residue log 2 E, (clog 2 E:r, right y-axis) exceeds the 95% upper confidence interval of the median clog 2 E:r for the entire protein (indicated as a horizontal dotted line in each panel). Proteins are referred to by their UniProt ID.
Hexadecapeptides were identified using a phage-display next generation sequencing approach (McLaughlin, 2013). Libraries containing a total of 55662 overlapping peptides (from the tick chemokine binding proteins shown in Tables 3A and 3B, the viral chemokine binding proteins shown in Table 3C, the human chemokines shown in Table 3 E, and the human/viral chemokine receptors and other chemokine-binding proteins shown in Table 3D) were first constructed, and then screened against a panel of up to 42 human chemokines, as shown in Table 3F.
On to CR5027 (FFSQLVYFIYHAVSSY), for which the “Chemokines Bound” value is “CCL17, CCL18, and CCL20, CXL10, and CXL11, SDF1, and IL8”.

As for CR5055 (FFYYLYVYLDIFSVVA), the “Chemokines Bound” value is “CCL18, CCL2, and CCL22, CXL10, and SDF1”.

CR5077 (FGFFIPLMFMIFSYTF): the “Chemokines Bound” value is on record as “CCL18, X3CL1,; also recorded: CXL14”.

On to CR5103 (FGLLGNILVVITFAFY), for which the “Chemokines Bound” value was “CCL19, CCL20,; also recorded: CCL22, CCL28,; also recorded: CXL10, SDF1,; also recorded: CXL14”.

In the case of CR5170 (FGVITSIVTWGLAVLA), the “Chemokines Bound” value was “X3CL1, CXL10, and IL8”.

Turning to CR5171 (FGVVTSVITWLVAVFA), the “Chemokines Bound” value was “CCL11, CCL17, and CCL18, CCL2, and CCL20, CCL22, and CCL25, CCL28, and X3CL1, CXL10, and CXL11, SDF1, and CXL13, CXL14, and IL8”.

With CR5172 (FGVVTSVITWVVAVFA), the “Chemokines Bound” value is “CCL1, CCL18, and CXL10, SDF1, and IL8”.

As to “CR5175: chemokine binding peptide of Table 5A used in FIG. 5 combinations (FGVWLMSIVGTFLNML)”, the “Chemokines Bound” value was “CCL17, CCL22, and IL8”.

For CR5236 (FIFVIGMIANSVVVWV), the “Chemokines Bound” value is “CCL19, CCL28,; also recorded: CXL11, SDF1,; also recorded: CXL13, IL8”.

Turning to CR5242 (FIGFFGSIFFITVISI), the “Chemokines Bound” value is listed as “CCL17, CCL18,; also recorded: CCL20, X3CL1,; also recorded: CXL13”.

For the substance CR5243 (FIGFFSGIFFIILLTI), the “Chemokines Bound” value was “CCL17, CCL18,; also recorded: CCL19, CCL20,; also recorded: CCL22, CXL11,; also recorded: SDF1, CXL14”.

For CR5245 (FIGIKIVYCFLWGIFP), the “Chemokines Bound” value was “CCL1, CCL15,; also recorded: CCL17, CCL18,; also recorded: CCL19, CCL20,; also recorded: CCL22, CCL25,; also recorded: CCL28, X3CL1,; also recorded: CXL10, CXL11,; also recorded: SDF1, CXL13,; also recorded: CXL14, IL8”.

For the substance CR5246 (FIGIKIVYSFLWGIFP), the “Chemokines Bound” value was “CCL20, CCL22,; also recorded: X3CL1, CXL10,; also recorded: CXL11”.

As for CR5262 (FILALVGNTLALWLFI), the “Chemokines Bound” value is “CCL22, CCL28,; also recorded: SDF1, IL8”.

As to CR5277 (FILYQFELFGFTLIFF), the “Chemokines Bound” value is “CCL17, CCL22, and CCL25, CCL28, and CXL10, CXL11, and SDF1”.

For the substance CR5349 (FIYVLMFLCNAIGNSL), the “Chemokines Bound” value was “CCL19, CCL20,; also recorded: CXL10”.

For the substance CR5416 (FLAFLRSGYDMWLMLV), the “Chemokines Bound” value was “CCL1, CCL11, and CCL17, CCL18, and CCL2, CCL20, and CXL11, CXL13, and IL8”.

For the substance CR5475 (FLFHLAVADLLLVFIL), the “Chemokines Bound” value is recorded as “CCL20, CCL22,; also recorded: CCL28, CXL10,; also recorded: CXL11, SDF1,; also recorded: CXL14”.

Regarding CR5511 (FLGILGNGLVIIIATF), the “Chemokines Bound” value was “CCL20, CCL22, and SDF1”.

As for CR5518 (FLGLMASVWTHLGMAL), the “Chemokines Bound” value is given as “CCL2, CXL10,; also recorded: CXL11”.

For CR5519 (FLGLMCSVWTHLGMAL), the “Chemokines Bound” value is recorded as “CCL1, CCL18,; also recorded: CCL2, CCL22,”.

The same assay, now with this note: log2E greater than 5, chemokines named by first part of UniProt Entry Name, peptides binding complement C5a (control) excluded.
For the substance CR5519 (FLGLMCSVWTHLGMAL), the “Chemokines Bound” value is listed as “CCL28, X3CL1,; also recorded: CXL10, CXL11,; also recorded: SDF1, CXL13,; also recorded: CXL14, IL8”.

For the substance CR5598 (FLLSLGIILFSYVEIL), the “Chemokines Bound” value is “CCL18, CCL19, and CXL10, CXL11, and SDF1, CXL14, and IL8”.

For the substance CR5669 (FLSIFYSVIFAIGLVG), the “Chemokines Bound” value is “CCL17, CCL18,; also recorded: CCL19, CCL20,; also recorded: CCL28, X3CL1,; also recorded: CXL10, CXL14”.

For CR5737 (FLVVVYSIVSFLGILG), the “Chemokines Bound” value is on record as “CCL17, CCL18,; also recorded: CCL19, CCL2,; also recorded: CCL20, CCL22,; also recorded: CCL25, CCL28,; also recorded: X3CL1, CXL10,; also recorded: CXL13, CXL14”.

Take CR5738 (FLWGIFPTVIFSYFYV): the “Chemokines Bound” value was “CCL18, CCL22, and CCL8, X3CL1, and CXL10, CXL11, and IL8”.

Consider CR5768 (FMFVLSVLGNLTVVCV), for which the “Chemokines Bound” value is given as “CCL19, CCL22,; also recorded: CCL25”.

Consider CR5775 (FMIFAYTFIVKTLVQA), for which the “Chemokines Bound” value is “CCL17, CCL18, and CCL28, X3CL1, and CXL11, SDF1, and CXL13, CXL14, and IL8”.

Turning to CR5776 (FMIFCYTFIVKTLVQA), the “Chemokines Bound” value is “CCL1, CCL17,; also recorded: CCL19, CCL20,; also recorded: SDF1, CXL13”.
